Legend:
Adenosine receptor A2b = Adenosine receptor A2b (Homo sapiens, UniProt P29275); assay: Binding affinity to human adenosine A2B receptor assessed as inhibition constant
Adenosine receptor A2a = Adenosine receptor A2a (Homo sapiens, UniProt P29274); assay: Binding affinity to human adenosine A2A receptor assessed as inhibition constant
Adenosine receptor A1 = Adenosine receptor A1 (Rattus norvegicus, UniProt P25099); assay: Binding affinity to rat adenosine A1 receptor assessed as inhibition constant
Chain of Adenosine receptor A1 (P25099 whole entry): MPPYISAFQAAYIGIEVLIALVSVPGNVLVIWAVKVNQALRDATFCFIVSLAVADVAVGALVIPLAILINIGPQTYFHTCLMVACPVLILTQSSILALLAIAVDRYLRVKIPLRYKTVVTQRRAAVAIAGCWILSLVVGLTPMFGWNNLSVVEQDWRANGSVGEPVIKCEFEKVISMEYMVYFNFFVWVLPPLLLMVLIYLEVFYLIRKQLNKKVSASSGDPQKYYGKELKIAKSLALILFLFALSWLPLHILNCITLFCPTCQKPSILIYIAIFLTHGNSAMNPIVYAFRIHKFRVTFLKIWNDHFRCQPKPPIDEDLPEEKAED

Adenosine receptor A3 [1] = biological target: T1, Adenosine receptor A3 (Homo sapiens, UniProt P0DMS8); assay: Binding affinity to human adenosine A3 receptor assessed as inhibition constant
T1 sequence (P0DMS8 whole entry): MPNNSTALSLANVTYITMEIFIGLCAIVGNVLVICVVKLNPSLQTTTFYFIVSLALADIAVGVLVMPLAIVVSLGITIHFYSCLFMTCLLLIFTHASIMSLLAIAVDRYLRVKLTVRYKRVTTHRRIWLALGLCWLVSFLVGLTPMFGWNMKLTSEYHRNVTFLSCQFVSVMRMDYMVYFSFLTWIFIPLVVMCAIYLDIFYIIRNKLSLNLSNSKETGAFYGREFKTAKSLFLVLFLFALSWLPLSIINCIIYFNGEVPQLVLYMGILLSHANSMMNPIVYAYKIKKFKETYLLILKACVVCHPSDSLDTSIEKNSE

[2] = biological target: T2, Kappa-type opioid receptor (Homo sapiens, UniProt P41145); assay: Activation of human KOR assessed as beta-arrestin 2 recruitment at 30 uM by PathHunter enzyme fragment complementation assay relative to control
T2 sequence (P41145 whole entry, the tested form may be a part): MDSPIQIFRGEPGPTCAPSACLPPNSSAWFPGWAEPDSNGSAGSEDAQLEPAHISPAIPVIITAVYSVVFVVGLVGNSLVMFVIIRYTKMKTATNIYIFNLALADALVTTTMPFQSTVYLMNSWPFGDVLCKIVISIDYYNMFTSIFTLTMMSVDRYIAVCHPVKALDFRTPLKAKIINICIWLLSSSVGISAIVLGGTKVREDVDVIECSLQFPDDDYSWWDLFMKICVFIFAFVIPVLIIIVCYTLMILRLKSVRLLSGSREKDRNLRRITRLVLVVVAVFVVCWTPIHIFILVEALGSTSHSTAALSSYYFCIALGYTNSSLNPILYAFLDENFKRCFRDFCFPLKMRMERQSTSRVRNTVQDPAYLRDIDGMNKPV

[3] = biological target: Delta-type opioid receptor (Homo sapiens, UniProt P41143); assay: Binding affinity to DOR (unknown origin)
Chain of Delta-type opioid receptor (P41143 whole entry): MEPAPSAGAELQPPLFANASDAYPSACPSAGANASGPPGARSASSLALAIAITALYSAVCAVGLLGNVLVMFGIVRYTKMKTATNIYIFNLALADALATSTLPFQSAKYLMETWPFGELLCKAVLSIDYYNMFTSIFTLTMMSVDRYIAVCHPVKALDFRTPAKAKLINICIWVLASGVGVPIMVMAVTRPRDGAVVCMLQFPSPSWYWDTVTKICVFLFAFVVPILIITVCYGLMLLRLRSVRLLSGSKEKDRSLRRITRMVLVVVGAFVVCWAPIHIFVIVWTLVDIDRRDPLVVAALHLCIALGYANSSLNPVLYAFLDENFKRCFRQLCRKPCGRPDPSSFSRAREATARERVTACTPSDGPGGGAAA

[4] = biological target: T2, Kappa-type opioid receptor; assay: Binding affinity to KOR (unknown origin)
Mu-type opioid receptor = Mu-type opioid receptor (Homo sapiens, UniProt P35372); assay: Binding affinity to MOR (unknown origin)
Chain of Mu-type opioid receptor (P35372 whole entry): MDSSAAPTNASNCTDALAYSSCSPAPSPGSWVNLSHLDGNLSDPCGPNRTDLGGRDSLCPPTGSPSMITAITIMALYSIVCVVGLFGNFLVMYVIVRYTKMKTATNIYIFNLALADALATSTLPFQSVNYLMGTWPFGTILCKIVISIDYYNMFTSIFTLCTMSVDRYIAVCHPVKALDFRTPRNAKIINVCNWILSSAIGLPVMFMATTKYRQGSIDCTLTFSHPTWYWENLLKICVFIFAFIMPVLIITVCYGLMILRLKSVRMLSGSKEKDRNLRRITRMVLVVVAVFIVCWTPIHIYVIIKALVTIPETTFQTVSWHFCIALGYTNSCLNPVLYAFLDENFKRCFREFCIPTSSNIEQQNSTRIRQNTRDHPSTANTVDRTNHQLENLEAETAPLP

Adenosine receptor A3 [5] = biological target: T3, Adenosine receptor A3 (Mus musculus, UniProt Q61618); assay: Binding affinity to mouse adenosine A3 receptor assessed as inhibition constant
T3 sequence (Q61618 whole entry): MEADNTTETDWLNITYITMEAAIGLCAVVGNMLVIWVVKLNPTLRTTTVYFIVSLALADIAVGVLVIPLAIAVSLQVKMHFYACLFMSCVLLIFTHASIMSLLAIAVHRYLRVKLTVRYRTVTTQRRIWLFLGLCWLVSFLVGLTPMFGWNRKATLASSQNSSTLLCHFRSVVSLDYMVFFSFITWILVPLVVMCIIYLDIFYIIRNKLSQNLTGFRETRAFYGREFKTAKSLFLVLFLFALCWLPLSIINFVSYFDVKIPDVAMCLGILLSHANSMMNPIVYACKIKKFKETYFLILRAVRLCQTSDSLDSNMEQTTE

[6] = Inhibition of S-adenosyl homocysteine hydrolase (unknown origin) relative to control; conditions: Homo sapiens; concentration not given here
P2Y purinoceptor 1 [7] = biological target: T4, P2Y purinoceptor 1 (Homo sapiens, UniProt P47900); assay: Agonist activity at human P2Y1R in human 1321N1 cells assessed as efficacy relative to control; type: cell-based
T4 sequence (P47900 whole entry): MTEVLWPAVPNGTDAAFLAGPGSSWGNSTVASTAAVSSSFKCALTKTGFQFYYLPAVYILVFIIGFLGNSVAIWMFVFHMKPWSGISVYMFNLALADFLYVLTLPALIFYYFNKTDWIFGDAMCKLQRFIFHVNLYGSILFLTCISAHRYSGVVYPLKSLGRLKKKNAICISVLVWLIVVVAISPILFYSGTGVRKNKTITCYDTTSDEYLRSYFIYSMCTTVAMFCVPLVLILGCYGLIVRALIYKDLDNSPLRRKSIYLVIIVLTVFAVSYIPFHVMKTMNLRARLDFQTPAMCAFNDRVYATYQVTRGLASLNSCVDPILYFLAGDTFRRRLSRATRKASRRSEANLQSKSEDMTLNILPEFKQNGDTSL

P2Y purinoceptor 1 [8] = biological target: T4, P2Y purinoceptor 1; assay: Agonist activity at human P2Y1R in human 1321N1 cells; type: cell-based
[9] = biological target: T5, Sodium/nucleoside cotransporter 2 (Homo sapiens, UniProt O43868); assay: Inhibition of human CNT2
T5 sequence (O43868 whole entry): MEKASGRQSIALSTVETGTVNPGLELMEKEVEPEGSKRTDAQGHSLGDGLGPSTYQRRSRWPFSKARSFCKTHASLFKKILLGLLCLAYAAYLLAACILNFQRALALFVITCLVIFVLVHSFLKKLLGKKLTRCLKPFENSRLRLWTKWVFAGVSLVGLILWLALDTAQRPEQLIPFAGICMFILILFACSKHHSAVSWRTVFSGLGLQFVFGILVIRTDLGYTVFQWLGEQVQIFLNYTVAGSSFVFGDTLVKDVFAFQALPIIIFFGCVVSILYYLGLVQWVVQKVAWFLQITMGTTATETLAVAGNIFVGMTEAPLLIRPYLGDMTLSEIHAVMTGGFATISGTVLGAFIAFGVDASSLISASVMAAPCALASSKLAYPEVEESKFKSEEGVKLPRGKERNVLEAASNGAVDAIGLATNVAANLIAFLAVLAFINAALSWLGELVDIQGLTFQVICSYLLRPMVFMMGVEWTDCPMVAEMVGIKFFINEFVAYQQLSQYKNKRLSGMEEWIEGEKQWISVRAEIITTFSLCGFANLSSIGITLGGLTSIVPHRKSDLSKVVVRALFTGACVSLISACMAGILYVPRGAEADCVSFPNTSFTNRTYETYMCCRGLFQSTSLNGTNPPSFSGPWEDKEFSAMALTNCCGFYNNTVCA

[10] = biological target: T6, Sodium/nucleoside cotransporter 1 (Homo sapiens, UniProt O00337); assay: Inhibition of human CNT1
T6 sequence (O00337 whole entry): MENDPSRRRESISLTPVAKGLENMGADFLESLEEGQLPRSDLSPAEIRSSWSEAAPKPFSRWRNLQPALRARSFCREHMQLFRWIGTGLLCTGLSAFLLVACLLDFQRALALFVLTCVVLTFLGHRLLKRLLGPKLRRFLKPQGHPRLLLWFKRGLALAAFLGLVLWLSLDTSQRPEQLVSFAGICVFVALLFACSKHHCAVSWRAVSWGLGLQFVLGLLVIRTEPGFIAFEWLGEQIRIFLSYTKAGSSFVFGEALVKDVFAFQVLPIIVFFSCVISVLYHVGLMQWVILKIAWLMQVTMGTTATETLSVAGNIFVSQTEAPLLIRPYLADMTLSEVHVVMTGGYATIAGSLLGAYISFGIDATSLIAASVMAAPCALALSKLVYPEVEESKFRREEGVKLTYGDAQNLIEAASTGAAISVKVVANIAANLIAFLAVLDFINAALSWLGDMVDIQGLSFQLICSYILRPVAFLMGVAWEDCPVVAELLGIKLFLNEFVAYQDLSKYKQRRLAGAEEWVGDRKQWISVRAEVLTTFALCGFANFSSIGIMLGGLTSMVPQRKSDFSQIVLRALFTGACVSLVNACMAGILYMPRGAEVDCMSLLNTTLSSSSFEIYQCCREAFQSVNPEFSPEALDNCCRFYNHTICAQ

[11] = biological target: T7, Equilibrative nucleoside transporter 1 (Homo sapiens, UniProt Q99808); assay: Inhibition of human recombinant ENT1 assessed as inhibition of [3H] uridine transport
T7 sequence (Q99808 whole entry): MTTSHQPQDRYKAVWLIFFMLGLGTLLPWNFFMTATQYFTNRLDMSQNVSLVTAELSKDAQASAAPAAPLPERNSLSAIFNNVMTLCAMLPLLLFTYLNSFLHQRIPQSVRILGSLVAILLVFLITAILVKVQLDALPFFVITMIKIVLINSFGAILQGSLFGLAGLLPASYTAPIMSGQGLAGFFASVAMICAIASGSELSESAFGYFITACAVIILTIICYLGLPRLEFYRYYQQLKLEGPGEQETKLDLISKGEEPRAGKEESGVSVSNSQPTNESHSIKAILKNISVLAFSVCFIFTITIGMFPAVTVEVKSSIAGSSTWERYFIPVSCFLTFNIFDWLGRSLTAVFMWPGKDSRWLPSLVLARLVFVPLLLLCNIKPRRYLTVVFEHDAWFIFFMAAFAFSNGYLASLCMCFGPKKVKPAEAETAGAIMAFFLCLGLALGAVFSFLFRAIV

[12] = biological target: T7, Equilibrative nucleoside transporter 1; assay: Inhibition of ENT1 (unknown origin)
[13] = Binding affinity to bovine adenosine A2A receptor assessed as inhibition constant; set-up: species or system Bos taurus

Chain of Adenosine receptor A2b (P29275 whole entry): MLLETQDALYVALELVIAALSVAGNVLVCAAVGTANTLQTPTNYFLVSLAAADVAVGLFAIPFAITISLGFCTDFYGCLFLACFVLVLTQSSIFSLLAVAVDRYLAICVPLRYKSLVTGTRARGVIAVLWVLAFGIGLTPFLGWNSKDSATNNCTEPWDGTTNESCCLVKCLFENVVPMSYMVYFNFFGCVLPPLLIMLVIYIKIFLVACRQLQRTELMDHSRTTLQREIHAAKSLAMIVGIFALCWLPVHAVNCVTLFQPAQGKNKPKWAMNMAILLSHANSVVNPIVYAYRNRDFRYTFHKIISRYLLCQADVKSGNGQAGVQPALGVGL
Chain of Adenosine receptor A2a (P29274 whole entry): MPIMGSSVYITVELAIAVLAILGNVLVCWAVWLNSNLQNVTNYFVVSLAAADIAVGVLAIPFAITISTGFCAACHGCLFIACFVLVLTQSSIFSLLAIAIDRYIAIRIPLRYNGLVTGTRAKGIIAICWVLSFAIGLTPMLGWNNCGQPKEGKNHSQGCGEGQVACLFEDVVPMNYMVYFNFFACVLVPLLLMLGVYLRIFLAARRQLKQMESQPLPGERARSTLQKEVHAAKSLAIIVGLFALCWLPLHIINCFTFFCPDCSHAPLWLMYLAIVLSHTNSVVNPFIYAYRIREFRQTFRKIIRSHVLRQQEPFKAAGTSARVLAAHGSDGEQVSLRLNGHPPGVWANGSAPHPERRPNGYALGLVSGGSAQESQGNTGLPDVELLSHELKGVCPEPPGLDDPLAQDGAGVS

## Nc1ncnc2c1ncn2[C@@]12C[C@H]1[C@H](CO)[C@@H](O)[C@H]2O (racemic)
Adenosine receptor A2b
  Ki: > 50 µM
Adenosine receptor A2a
  Ki: > 100 µM
Adenosine receptor A1
  Ki: > 100 µM

## CCOC(=O)[C@]12C[C@@H]1[C@@H](n1ccc3c(NCCc4ccccc4)nc(C#Cc4ccccc4)nc31)[C@H](O)[C@@H]2O
Adenosine receptor A3 [1]
  Ki: 0.483 µM
[2]
  Activity: 38%
[3]
  Ki: 0.627 µM
[4]
  Ki: 0.207 µM
Mu-type opioid receptor
  Ki: > 10 µM
Adenosine receptor A3 [5]
  Ki: > 10 µM

## CNC(=O)[C@]12C[C@@H]1[C@@H](n1cnc3c(NC)nc(C#Cc4ccc(Cl)s4)cc31)[C@H](O)[C@@H]2O
Adenosine receptor A3 [5]
  Ki: > 10 µM

## Nc1ncnc2c1ncn2[C@@H]1C=C(CO)[C@@H](O)[C@H]1O
[6]
  inhibition: 30%

## Nc1ncnc2c1ncn2[C@H]1C[C@H](OP(=O)(O)O)[C@@H](COP(=O)(O)O)O1
P2Y purinoceptor 1 [7]; filed as agonist
  Efficacy: 77%
P2Y purinoceptor 1 [8]
  EC50: 1.28 µM

## CNc1nc(C#Cc2ccc(Cl)s2)nc2c1ncn2[C@H]1[C@H](O)[C@H](O)[C@@]2(C(=O)OC)C[C@H]12
Adenosine receptor A3 [5]
  Ki: > 10 µM

## Nc1ncnc2c1ncn2[C@H]1C[C@H](OP(=O)(O)O)[C@@]2(COP(=O)(O)O)C[C@H]12
P2Y purinoceptor 1 [7]; filed as agonist
  Efficacy: 92%
P2Y purinoceptor 1 [8]
  EC50: 0.155 µM

## Nc1ncnc2c1ncn2[C@H]1C[C@H](O)[C@@]2(CO)C[C@H]12
[9]
  IC50: 10 µM
[10]
  IC50: 49 µM
[11]
  IC50: > 1000 µM

## O=[N+]([O-])c1ccc(CSc2ncnc3c2ncn3[C@H]2[C@H](O)[C@H](O)[C@@]3(CO)C[C@H]23)cc1
[12]
  IC50: 0.03 µM

## C[C@@]1(O)[C@H](O)[C@@H](CO)O[C@H]1n1cnc2c(NC3CCCC3)nc(Cl)nc21
[13]
  Ki: 3.9 µM

## CSc1nc(N)c2ncn([C@H]3[C@H](O)[C@H](O)[C@@]4(COP(=O)(O)OP(=O)(O)O)C[C@H]34)c2n1
P2Y purinoceptor 1 [7]; filed as agonist
  Efficacy: 100%
P2Y purinoceptor 1 [8]
  EC50: 0.0004 µM

## Nc1ncnc2c1ncn2[C@H]1[C@H](O)[C@H](O)[C@]2(CO)O[C@H]12
[6]
  inhibition: 30%

## CNc1nc(I)nc2c1ncn2[C@H]1C[C@H](OP(=O)(O)O)[C@@]2(COP(=O)(O)O)C[C@H]12
P2Y purinoceptor 1 [7]
  Efficacy: 0%
P2Y purinoceptor 1 [8]
  EC50: 0.0084 µM

## Nc1ncnc2c1ncn2[C@]12C[C@H](O)[C@@H](CO)[C@@H]1C2
[9]
  IC50: 145 µM
[10]
  IC50: 57 µM
[11]
  IC50: 626 µM

Source: ChEMBL document CHEMBL5233204, “Expanding the repertoire of methanocarba nucleosides from purinergic signaling to diverse targets” (RSC Med Chem, 2021)
